{"source": "patent US6683054B1", "about": "“Use of melagatran” (AstraZeneca AB, priority 1999, dated 2004)", "test_system": "paw oedema", "test": "Carrageenan-induced paw oedema in rats (foot volume by water plethysmograph)", "format": "in vivo, rat", "details": "for % Inhibition after sub-plantar injection, 2 hours after / % Inhibition after sub-plantar injection, 4 hours after: Table 1; for % Inhibition after sub-plantar injection, 2 hours after: 2 hours after carrageenan; for % Inhibition after sub-plantar injection, 4 hours after: 4 hours after carrageenan", "excerpt": "Groups of five male Charles River CD rats in the weight range 180 to 240 g were used. On their arrival, rats were housed in controlled environment rooms and fed a standard diet for at least one week before use.\nRats were starved overnight before the test, although water was given ad libitum. A mark was made on the ankle joint of each rat, the day before the test, to indicate where the foot volume was to be measured.\nCompounds were made up in the appropriate vehicle for dosing via either the subcutaneous (s.c.), intravenous (i.v.) or oral (p.o.) routes. Melagatran was dosed in water (20 μmol/kg) when given p.o., and in saline, and in cyclodextrin (40%), when given s.c. (0.7 to 2 μmol/kg). Drugs were administered in a dose volume of 5 mL/kg body weight for p.o. dosing or 1 to 2 mL/kg body weight for s.c. dosing. Control rats received the equivalent volume of vehicle.\nA 1% solution of carrageenan in saline was prepared the day prior to the test. The carrageenan was suspended in saline and stirred vigorously on a magnetic stirrer for one hour. It was then stored at 4° C. until required. Thirty minutes after dosing, each rat was injected s.c. in the plantar region of the left hind foot with 0.1 mL of 1% carrageenan.\nTo reduce both discomfort to the rat and variability in the test, rats were housed on wood chip bedding in solid bottom cages. The rats had access to a solution of 5% glucose throughout the duration of the test.\nThe plethysmograph was calibrated using blocks of 2 mL and 4 mL mass before the first, and after the last, measurement at each time point.\nFoot volumes were measured before dosing and up to 6 hours after the sub-plantar injection of carrageenan. The increase in foot volume for each rat was calculated using the difference between the individual foot volume at time zero, and at the various time points. The inhibition afforded by a treatment was expressed as a percentage inhibition of the mean absolute increase in foot volume in treated animals compared to control animals. Indomethacin at 10 mg/kg p.o. was always included as an internal standard. If indomethacin gave less than 30% inhibition at 4 h then the test was considered invalid.", "key": {"[1]": {"details": "Table 2, 2 μmol/kg s.c. in cyclodextrin"}, "[2]": {"details": "Table 2, 20 μmol/kg p.o. in water"}, "[3]": {"details": "Table 3, 2 μmol/kg s.c. in saline"}, "[4]": {"details": "Table 4, 0.7 μmol/kg s.c. in saline"}, "[5]": {"details": "Table 4, 1.4 μmol/kg s.c. in saline"}, "[6]": {"details": "Table 4, 2.0 μmol/kg s.c. in saline"}}, "data": [{"smiles": "C[C@@H]1C[C@H]2[C@@H]3CCC4=CC(=O)C=C[C@]4(C)[C@@]3(F)[C@@H](O)C[C@]2(C)[C@@]1(O)C(=O)CO", "note": "[Dexamethasone, reference compound]", "values": [{"measurement": "% Inhibition after sub-plantar injection, 2 hours after", "setting": "0.03 mg/kg p.o.", "value": 47, "unit": "%"}, {"measurement": "% Inhibition after sub-plantar injection, 4 hours after", "setting": "0.03 mg/kg p.o.", "value": 74, "unit": "%"}, {"measurement": "% Inhibition after sub-plantar injection, 2 hours after", "setting": "0.3 mg/kg p.o.", "value": 51, "unit": "%"}, {"measurement": "% Inhibition after sub-plantar injection, 4 hours after", "setting": "0.3 mg/kg p.o.", "value": 96, "unit": "%"}]}, {"smiles": "CC(C)Cc1ccc(C(C)C(=O)O)cc1", "note": "(stereo not shown) [Ibuprofen, reference compound]", "values": [{"measurement": "% Inhibition after sub-plantar injection, 2 hours after", "setting": "10 mg/kg p.o.", "value": 22, "unit": "%"}, {"measurement": "% Inhibition after sub-plantar injection, 4 hours after", "setting": "10 mg/kg p.o.", "value": 26, "unit": "%"}]}, {"smiles": "COc1ccc2c(c1)c(CC(=O)O)c(C)n2C(=O)c1ccc(Cl)cc1", "note": "[Indomethacin, reference compound]", "values": [{"measurement": "% Inhibition after sub-plantar injection, 2 hours after", "setting": "10 mg/kg p.o.", "value": 43, "unit": "%"}, {"measurement": "% Inhibition after sub-plantar injection, 4 hours after", "setting": "10 mg/kg p.o.", "value": 50, "unit": "%"}, {"measurement": "% Inhibition after 1 hour", "setting": "Table 2, 10 mg/kg p.o.", "value": "−5", "unit": "%"}, {"measurement": "% Inhibition after 2 hours", "setting": "Table 2, 10 mg/kg p.o.", "value": 50, "unit": "%"}, {"measurement": "% Inhibition after 3 hours", "setting": "Table 2, 10 mg/kg p.o.", "value": 39, "unit": "%"}, {"measurement": "% Inhibition after 4 hours", "setting": "Table 2, 10 mg/kg p.o.", "value": 12, "unit": "%"}, {"measurement": "% Inhibition after 1 hour", "setting": "Table 3, 10 mg/kg p.o.", "value": 15, "unit": "%"}, {"measurement": "% Inhibition after 2 hours", "setting": "Table 3, 10 mg/kg p.o.", "value": 2, "unit": "%"}, {"measurement": "% Inhibition after 3 hours", "setting": "Table 3, 10 mg/kg p.o.", "value": 29, "unit": "%"}, {"measurement": "% Inhibition after 4 hours", "setting": "Table 3, 10 mg/kg p.o.", "value": 18, "unit": "%"}]}, {"smiles": "N=C(N)c1ccc(CNC(=O)[C@@H]2CCN2C(=O)[C@H](NCC(=O)O)C2CCCCC2)cc1", "note": "[Melagatran, HOOC—CH2—(R)Cgl-Aze-Pab-H]", "values": [{"measurement": "% Inhibition after 1 hour", "setting": "[1]", "value": 29, "unit": "%"}, {"measurement": "% Inhibition after 2 hours", "setting": "[1]", "value": 13, "unit": "%"}, {"measurement": "% Inhibition after 3 hours", "setting": "[1]", "value": 3, "unit": "%"}, {"measurement": "% Inhibition after 4 hours", "setting": "[1]", "value": 13, "unit": "%"}, {"measurement": "% Inhibition after 1 hour", "setting": "[2]", "value": 14, "unit": "%"}, {"measurement": "% Inhibition after 2 hours", "setting": "[2]", "value": 17, "unit": "%"}, {"measurement": "% Inhibition after 3 hours", "setting": "[2]", "value": "−14", "unit": "%"}, {"measurement": "% Inhibition after 4 hours", "setting": "[2]", "value": "−2", "unit": "%"}, {"measurement": "% Inhibition after 1 hour", "setting": "[3]", "value": 39, "unit": "%"}, {"measurement": "% Inhibition after 2 hours", "setting": "[3]", "value": 8, "unit": "%"}, {"measurement": "% Inhibition after 3 hours", "setting": "[3]", "value": 2, "unit": "%"}, {"measurement": "% Inhibition after 4 hours", "setting": "[3]", "value": "−8", "unit": "%"}, {"measurement": "% Inhibition after 1 hour", "setting": "[4]", "value": 39, "unit": "%"}, {"measurement": "% Inhibition after 1.5 hours", "setting": "[4]", "value": "−1", "unit": "%"}, {"measurement": "% Inhibition after 2 hours", "setting": "[4]", "value": 9, "unit": "%"}, {"measurement": "% Inhibition after 3 hours", "setting": "[4]", "value": 16, "unit": "%"}, {"measurement": "% Inhibition after 1 hour", "setting": "[5]", "value": 65, "unit": "%"}, {"measurement": "% Inhibition after 1.5 hours", "setting": "[5]", "value": 40, "unit": "%"}, {"measurement": "% Inhibition after 2 hours", "setting": "[5]", "value": 5, "unit": "%"}, {"measurement": "% Inhibition after 3 hours", "setting": "[5]", "value": 7, "unit": "%"}, {"measurement": "% Inhibition after 1 hour", "setting": "[6]", "value": 76, "unit": "%"}, {"measurement": "% Inhibition after 1.5 hours", "setting": "[6]", "value": 41, "unit": "%"}, {"measurement": "% Inhibition after 2 hours", "setting": "[6]", "value": 17, "unit": "%"}, {"measurement": "% Inhibition after 3 hours", "setting": "[6]", "value": 19, "unit": "%"}, {"measurement": "inhibition of the oedema", "setting": "in saline, 2 μmol/kg s.c., after 1 h", "value": 39, "unit": "%"}, {"measurement": "inhibition of paw oedema, dose and time dependence (in words)", "setting": "in saline, 0.7, 1.4 and 2 μmol/kg s.c., 1 to 3 hours", "value": "inhibited paw oedema in both a dose dependent, and time dependent, manner"}, {"measurement": "inhibiting paw oedema (in words)", "setting": "orally 20 μmol/kg in water, 30 minutes prior to carrageenan, up to 6 h post dosing", "value": "ineffective"}]}]}
